Laboratory results from patent publication US3996150A, “Ester compounds” (Lever Brothers Company, priority 1975, dated 1976).

Key:
[1] = Terg-O-Tometer stain removal test of detergent product containing the detergent solvent, rated visually; parameters: key: 0: complete removal; 1: Very slight remaining stain; 2: Slight remaining stain; 3: Moderate stain removal; 4: Poor stain removal; 5: Very poor stain removal; 6: Equal to original stain; details: 4.0% detergent solvent in detergent product; 5% solution 15 min, then 20 min wash at 0.144%; 120° F, 180 ppm hardness
Method: Four Dacron/cotton (65-35%) Khaki permanent press (Pants weight) test pieces (41/2 inches×6 inches) are first soiled by adding 3 drops of dirty crankcase motor oil on the center of the cloth and the stain allowed to set for one hour. The test cloths are then washed in the Terg-O-Tometerat 120° F, 180 ppm (2:1 Ca^+^+/Mg^+^+) hardness, 90 cycles per minute agitation, with a 5% solution of the detergent product described below (i.e., 50 g/liter) for 15 minutes and then hand squeezed to remove excess water. Finally the cloths are given a 20 minute wash at the standard use level (e.g. 0.144%) under the same conditions followed by a 1 minute rinse. After drying the washed cloths, the degree of stain removal is rated visually according to the scale below:
1 = Very slight remaining stain
2 = Slight remaining stain
3 = Moderate stain removal
5 = Very poor stain removal
6 = Equal to original stain
Ten such formulations utilizing the following "Detergent Solvents" were prepared and evaluated as described above: […]

[2] = parent compound from which the esters are derived; cited from earlier work
[3] = parent compound from which the esters are derived; cited from earlier work; remark: listed apart in the source
[4] = under both aerobic and anaerobic conditions; cited from earlier work
[5] = Cold resistance of plasticized polyvinyl chloride film; type: physicochemical; details: PVC film 1.3 mm, 65 parts plasticizer per 100 parts S-PVC resin
Method: Tri(2-ethylhexyl) carboxymethyloxysuccinate was incorporated as a plasticizer in the preparation of polyvinyl chloride film as follows
Using a mixing roller at 170° (7 min.) followed by post-pressing the film at 170° C under contact pressure for 2 minutes, a good plasticized film (1.3 mm) of polyvinyl chloride was obtained. Cold resistance was -39° C compared to -36° C for a control PVC film made using di-2-ethylhexyl phthalate (DOP) as the plasticizer.

Row | SMILES | Visual Grading Code (degree of stain removal) [1] | further results
1 | CCCOC(=O)COC(CC(=O)OCCC)C(=O)OCCC (centres unmarked) [D, tripropyl carboxymethyloxysuccinate] | 1 | 
2 | CCCCCCOC(=O)COC(CC(=O)OCCCCCC)C(=O)OCCCCCC (centres unmarked) [F, trihexyl carboxymethyloxysuccinate] | 1 | 
3 | O=C(O)COC(CC(=O)O)C(=O)O (centres unmarked) [carboxymethyloxysuccinic acid] |  | toxicity [2]: non-toxic; teratogenicity [3]: non-teratogenic; biodegradability [4]: completely biodegradable
4 | CCCCOC(=O)COC(CC(=O)OCCCC)C(=O)OCCCC (centres unmarked) [E, tributyl carboxymethyloxysuccinate] | 2 | 
5 | COC(=O)COC(CC(=O)OC)C(=O)OC (centres unmarked) [B, trimethyl carboxymethyloxysuccinate] | 2 | 
6 | CCCCOC(=O)c1ccccc1C(=O)OCCCC [A, dibutyl phthalate, reference compound] | 2 | 
7 | CCCCC(CC)COC(=O)COC(CC(=O)OCC(CC)CCCC)C(=O)OCC(CC)CCCC (centres unmarked) [G, tri(2-ethylhexyl) carboxymethyloxysuccinate] | 2 | Cold resistance [5]: -39 °C
8 | CCCCCCCCOC(=O)COC(CC(=O)OCCCCCCCC)C(=O)OCCCCCCCC (centres unmarked) [H, trioctyl carboxymethyloxysuccinate] | 2 | 
9 | CCCCC(CC)COC(=O)c1ccccc1C(=O)OCC(CC)CCCC (centres unmarked) [di-2-ethylhexyl phthalate, reference compound] |  | Cold resistance [5]: -36 °C
10 | CCOC(=O)COC(CC(=O)OCC)C(=O)OCC (centres unmarked) [C, triethyl carboxymethyloxysuccinate] | 1 | 
11 | CCCCCCCCCCCCOC(=O)COC(CC(=O)OCCCCCCCCCCCC)C(=O)OCCCCCCCCCCCC (centres unmarked) [J, tridodecyl carboxymethyloxysuccinate] | 2 | 
